T1: Solute carrier family 22 member 2 (Rattus norvegicus, UniProt Q9R0W2)
T1 sequence (Q9R0W2 whole entry): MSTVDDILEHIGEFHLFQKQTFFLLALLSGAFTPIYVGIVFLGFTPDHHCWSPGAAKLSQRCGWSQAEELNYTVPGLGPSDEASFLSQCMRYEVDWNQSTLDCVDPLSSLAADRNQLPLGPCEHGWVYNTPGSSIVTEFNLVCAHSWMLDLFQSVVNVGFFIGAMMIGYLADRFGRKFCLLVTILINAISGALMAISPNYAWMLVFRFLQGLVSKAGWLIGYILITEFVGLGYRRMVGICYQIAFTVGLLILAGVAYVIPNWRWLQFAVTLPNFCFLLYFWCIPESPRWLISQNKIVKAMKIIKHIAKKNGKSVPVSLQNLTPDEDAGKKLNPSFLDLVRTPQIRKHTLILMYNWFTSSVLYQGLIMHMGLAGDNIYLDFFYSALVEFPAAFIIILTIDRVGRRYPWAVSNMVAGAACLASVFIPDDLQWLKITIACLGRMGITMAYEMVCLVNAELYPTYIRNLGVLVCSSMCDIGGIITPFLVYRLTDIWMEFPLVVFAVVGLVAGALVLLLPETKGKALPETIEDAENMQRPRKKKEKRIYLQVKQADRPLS

T2: Solute carrier family 22 member 1 (Rattus norvegicus, UniProt Q63089)
T2 sequence (Q63089 whole entry): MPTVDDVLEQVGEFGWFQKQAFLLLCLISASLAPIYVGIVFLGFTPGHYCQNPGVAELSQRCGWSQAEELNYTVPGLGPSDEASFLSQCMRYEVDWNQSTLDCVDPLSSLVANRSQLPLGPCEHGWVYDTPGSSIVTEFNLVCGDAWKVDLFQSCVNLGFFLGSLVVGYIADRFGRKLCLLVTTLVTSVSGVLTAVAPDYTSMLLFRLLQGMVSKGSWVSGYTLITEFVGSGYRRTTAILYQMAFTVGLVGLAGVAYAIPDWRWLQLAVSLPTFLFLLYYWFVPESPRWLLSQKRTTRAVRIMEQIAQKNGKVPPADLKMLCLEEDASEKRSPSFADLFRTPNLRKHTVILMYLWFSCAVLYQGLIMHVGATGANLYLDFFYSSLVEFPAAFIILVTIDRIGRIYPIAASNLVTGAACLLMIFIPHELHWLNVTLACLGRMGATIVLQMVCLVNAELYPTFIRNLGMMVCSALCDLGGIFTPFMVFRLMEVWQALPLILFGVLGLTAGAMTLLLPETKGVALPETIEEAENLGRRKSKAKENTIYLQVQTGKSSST


Columns and labels:
[1] = molecular target: T1, Solute carrier family 22 member 2; test: TP_TRANSPORTER: inhibition of TEA uptake (TEA: 100 uM) in Xenopus laevis oocytes; format: functional, cell-based, Oocyte
[2] = molecular target: T2, Solute carrier family 22 member 1
[3] = molecular target: T1, Solute carrier family 22 member 2; test: TP_TRANSPORTER: inhibition of TEA uptake (TEA: 250 uM, Levofloxacin: 5000 uM) in Xenopus laevis oocytes; format: functional, cell-based; details: oocyte
[4] = substrate: CC[N+](CC)(CC)CC; test: cells, lysate or membranes named

Molecule | IC50 [1] [µM] | IC50 [2] [µM] | Activity [3] | Km [4] [µM]
CCN1/C(=C/c2ccc3ccccc3[n+]2CC)C=Cc2ccccc21 | 13.8 |  |  | 
C[N+](C)(C)CCO [CHOLINE] | 159 | 398 |  | 
CN/C(=N/CCSCc1nc[nH]c1C)NC#N [CIMETIDINE] | 373 | 329 |  | 
C[C@H]1COc2c(N3CCN(C)CC3)c(F)cc3c(=O)c(C(=O)O)cn1c23.C[C@H]1COc2c(N3CCN(C)CC3)c(F)cc3c(=O)c(C(=O)O)cn1c23.O [LEVOFLOXACIN] |  |  | inhibitor [+] | 
Solute carrier family 22 member 2 (Rattus norvegicus) (protein) MSTVDDILEHIGEFHLFQKQTFFLLALLSGAFTPIYVGIVFLGFTPDHHCWSPGAAKLSQRCGWSQAEELNYTVPGLGPSDEASFLSQCMRYEVDWNQSTLDCVDPLSSLAADRNQLPLGPCEHGWVYNTPGSSIVTEFNLVCAHSWMLDLFQSVVNVGFFIGAMMIGYLADRFGRKFCLLVTILINAISGALMAISPNYAWMLVFRFLQGLVSKAGWLIGYILITEFVGLGYRRMVGICYQIAFTVGLLILAGVAYVIPNWRWLQFAVTLPNFCFLLYFWCIPESPRWLISQNKIVKAMKIIKHIAKKNGKSVPVSLQNLTPDEDAGKKLNPSFLDLVRTPQIRKHTLILMYNWFTSSVLYQGLIMHMGLAGDNIYLDFFYSALVEFPAAFIIILTIDRVGRRYPWAVSNMVAGAACLASVFIPDDLQWLKITIACLGRMGITMAYEMVCLVNAELYPTYIRNLGVLVCSSMCDIGGIITPFLVYRLTDIWMEFPLVVFAVVGLVAGALVLLLPETKGKALPETIEDAENMQRPRKKKEKRIYLQVKQADRPLS |  |  |  | 33.8

Source: ChEMBL document CHEMBL2074565, “Molecular mechanisms of organic cation transport in OCT2-expressing Xenopus oocytes” (Biochim Biophys Acta, 1999)
